The values below come from patent US20170007561A1, “CONTEMPORANEOUS, HETEROGENEOUSLY-ORIENTED, MULTI-TARGETED THERAPEUTIC MODIFICATION AND/OR MODULATION OF DISEASE BY ADMINISTRATION OF SULFUR-CONTAINING, AMINO ACID-SPECIFIC SMALL MOLECULES” (BioNumerik Pharmaceuticals, Inc., priority 2014, published 2017).

Data set [1] relates to Trx/TrxR system in human cancer cells. The conditions noted are these: cited from earlier work.
The target of another data set is T1, TrxR/Trx system (Homo sapiens, UniProt P10599).
T1 construct: purchased Sigma (Trx); American Diagnostica (bovine TrxR)
T1 sequence (P10599 1-105): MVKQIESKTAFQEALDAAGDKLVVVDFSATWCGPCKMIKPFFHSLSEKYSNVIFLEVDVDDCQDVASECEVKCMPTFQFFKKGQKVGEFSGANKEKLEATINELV
Put plainly: TrxR/Trx NADPH oxidation assay. Conditions: increasing concentrations of test substance. The class given is biochemical. An excerpt:
(Note: error bars are small and may be obscured by the symbols). […] (Note: error bars were omitted but assays were run in quadruplicate with typical errors of 5-8% between individual replicates). […] Panel D: Initial velocity reaction rates corresponding to progress curves shown in Panel C. With time, Trx-mesna and Trx-GSH are converted back to apo-Trx by Trx reductase (see also, FIG. 69, Panel E).

Another data set has as its target T2, bovine TrxR (Bos taurus, UniProt O62768).
T2 construct: purchased American Diagnostica
T2 sequence (O62768 1-499): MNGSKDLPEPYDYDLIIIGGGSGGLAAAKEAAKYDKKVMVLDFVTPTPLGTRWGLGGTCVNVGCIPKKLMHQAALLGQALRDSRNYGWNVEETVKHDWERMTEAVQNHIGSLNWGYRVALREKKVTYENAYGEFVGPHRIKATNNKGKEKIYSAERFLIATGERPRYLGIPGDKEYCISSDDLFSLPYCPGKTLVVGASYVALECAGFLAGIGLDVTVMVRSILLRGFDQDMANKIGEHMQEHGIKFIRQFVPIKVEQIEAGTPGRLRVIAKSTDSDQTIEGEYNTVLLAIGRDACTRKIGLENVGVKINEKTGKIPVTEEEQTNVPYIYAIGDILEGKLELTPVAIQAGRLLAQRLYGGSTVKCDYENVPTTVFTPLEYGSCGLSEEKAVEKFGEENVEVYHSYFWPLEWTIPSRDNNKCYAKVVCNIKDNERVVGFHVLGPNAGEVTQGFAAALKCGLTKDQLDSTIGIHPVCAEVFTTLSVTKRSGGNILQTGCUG
In words: TrxR NADPH oxidation assay without Trx (Reaction A). The format is biochemical. Conditions: TrxR alone + NADPH, no Trx; disulfide 0.5 mM.

The subject of data set [2] is mammalian thioredoxin reductase (TrxR). Conditions: cited from earlier work.
In data set [3] the test system is bovine brain microtubule protein (α-/β-tubulin). Put plainly: Microtubule protein polymerization assay (OD350). The class given is biochemical. The conditions noted are these: for effect on GTP promoted microtubule protein polymerization: mesna, even at 10 mM.
For data set [4] the following is noted: read-out: Cmax for mesna; 41 g/m^2 Tavocept; cited from earlier work.
For a further data set, the system named is some cell lines. In words: In vitro cytotoxicity of mesna. The conditions noted are these: ≦400 μM; unpublished data.
Data set [5] deals with non-small cell lung cancer. Conditions: patients greater than or equal to 65 years, carboplatin and paclitaxel chemotherapy; cited from earlier work.
For data set [6], the target named is Recombinant human thioredoxin (Trx) (human) (UniProt P10599).
The target of data set [7] is T3, human Trx with rat liver TrxR (Homo sapiens, UniProt P10599).
T3 sequence (P10599 1-105): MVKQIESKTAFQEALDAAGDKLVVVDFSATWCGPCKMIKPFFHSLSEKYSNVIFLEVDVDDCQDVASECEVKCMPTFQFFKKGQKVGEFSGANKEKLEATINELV
Put plainly: TrxR/Trx insulin disulfide reduction assay (NADPH oxidation 340 nm, insulin B chain precipitation 650 nm). The class given is biochemical. Conditions: modified Trx purified from free Tavocept or glutathione disulfide.

Entries after “also recorded” stand apart in the source; their conditions may differ.

For `CCOC(=O)NC1=C(N2CC2)C(=O)C(NC(=O)OCC)=C(N2CC2)C1=O` [Diaziquone], the “Inhibition of Trx/TrxR system and cellular ribonucleotide reductase activity” value in [1] is recorded as “inhibit the Trx/TrxR system resulting in a concentration-dependent inhibition of cellular ribonucleotide reductase activity”.
On to `NC(CSSCCS(=O)(=O)O)C(=O)O` (stereo not shown) [MSSC, mesna-cysteine disulfide], for which, at TrxR/Trx system, the “NADPH oxidation by TrxR and Trx” value is “increases”. For the same molecule, the “NADPH Oxidation, Reaction A” value on bovine TrxR is 0.2 ± 0.03 nmol/min/mL.
On the same counts, the results for `N[C@@H](CCC(=O)N[C@@H](CSSCCS(=O)(=O)O)C(=O)NCC(=O)O)C(=O)O` [MSSG, mesna-glutathione disulfide] are “increases” and 0.3 ± 0.02 nmol/min/mL.
For the molecule `NC(CCSSCCS(=O)(=O)O)C(=O)O` (stereo not shown) [MSSH, mesna-homocysteine disulfide], the “NADPH oxidation by TrxR and Trx” value on TrxR/Trx system was “increases”. Further, the “NADPH Oxidation, Reaction A” value at bovine TrxR worked out at 0.0 ± 0.03 nmol/min/mL.
Consider `COc1cccc2c1C(=O)c1c(O)c3c(c(O)c1C2=O)C[C@@](O)(C(=O)CO)C[C@@H]3O[C@H]1C[C@H](N)[C@H](O)[C@H](C)O1` [doxorubicin], for which, in data set [2], the “Inhibition of TrxR” value is “not inhibitors of TrxR”. In addition, the “Inhibition of Trx/TrxR system and cellular ribonucleotide reductase activity” value in [1] is “inhibit the Trx/TrxR system resulting in a concentration-dependent inhibition of cellular ribonucleotide reductase activity”.
As for `O=S(=O)([O-])CCS.[Na+]` [mesna, 2-mercapto ethane sulfonate], in data set [3] (in the absence of monoaquocisplatin), the “effect alone on microtubule protein polymerization” value was “neither mesna nor cysteine alone (in the absence of monoaquocisplatin) had any effect; also recorded: no detectable effect”. Further, the “effect on paclitaxel-induced hyperpolymerization of MTP” value in data set [3] (mesna alone) is recorded as “no detectable effect”. In addition, the entries for the “effect on GTP promoted microtubule protein polymerization” value in data set [3] and in data set [3] (listed as Mesna) were “did not affect microtubule protein polymerization in an appreciable manner” and “does not affect”, respectively. Further, the “protection against monoaquocisplatin-induced loss of microtubule protein polymerization” value in data set [3] (preincubated with monoaquocisplatin (36 μM), mesna or cysteine 200 μM) is “prevented the monoaquocisplatin-induced loss; also recorded: able to protect”. Further, the Cmax (commonly the maximum level reached in the sampled fluid or tissue) in data set [4] was roughly 323 µM. The Cytotoxicity in vitro result with some cell lines was “can be cytotoxic to some cell lines”.
For Avastin: Avastin (bevacizumab), the Survival advantage result in data set [5] was “did not confer a survival advantage”.
The molecule “Recombinant human thioredoxin (Trx) (from UniProt P10599) (enzyme)” gave an NADPH Oxidation (nmoles/min/mL) (nmoles/min/mL) in the data set with insulin of 18.
For the molecule “Tavocept-modified Prx (Prx-mesna) (from UniProt Q06830) (enzyme)”, the rate of NADPH oxidation at 340 nm in the Prx assay (% reduction in rate) in [6] turned out to be 43.
Regarding “bovine Trx reductase (TrxR) (from UniProt O62768) (enzyme)”, the NADPH Oxidation (nmoles/min/mL) (nmoles/min/mL) in the data set with insulin came to 0.3.

B1: Trx-mesna: Trx covalently modified by a Tavocept-derived mesna moiety (protein)
chain: MVKQIESKTAFQEALDAAGDKLVVVDFSATWCGPCKMIKPFFHSLSEKYSNVIFLEVDVDDCQDVASECEVKCMPTFQFFKKGQKVGEFSGANKEKLEATINELV
modifications: Tavocept-derived mesna mixed disulfide on Cys73 and on Cys62 or Cys69 (mass spectroscopy)
notes: Trx covalently modified by a Tavocept-derived mesna moiety
B1: the “Effect on initial velocity of insulin reduction relative to apo-Trx” value in [7] was “inhibitory effect”.

B2: Trx-GSH: Trx modified by glutathione after incubation with glutathione disulfide (protein)
chain: MVKQIESKTAFQEALDAAGDKLVVVDFSATWCGPCKMIKPFFHSLSEKYSNVIFLEVDVDDCQDVASECEVKCMPTFQFFKKGQKVGEFSGANKEKLEATINELV
modifications: glutathionylated (cysteine-73 in the control reactions with glutathione)
notes: Trx modified by glutathione after incubation with glutathione disulfide
Turning to B2, the “Effect on initial velocity of insulin reduction relative to apo-Trx” value in data set [7] is on record as “a clear effect on initial velocity”.
